In one series the test system is Trypanosoma cruzi. As to the kind of experiment: Trypanocidal activity against Trypanosoma cruzi Y bloodstream trypomastigotes in presence of 10% mouse blood assessed as induction of parasite lysis incubated for 24 hrs by Neubauer chamber based cell counting method. Type of series: functional, organism-based.
The nature of series [1]: Toxicity against mouse HMC incubated for 24 hrs. Conditions: HMC cells, read-out: LC50.
The nature of series [2]: Selectivity index, ratio of LC50 for mouse HMC to IC50 for Trypanosoma cruzi Y bloodstream trypomastigotes.

SMILES strings stand for the structures.

The IC50 is the concentration that gives 50% inhibition. As for `COc1ccc(SC2C3=C(OC2(C)C)c2ccccc2C(=O)C3=O)cc1` (stereo not given), the half-inhibitory concentration (IC50) in the series with Trypanosoma cruzi was determined as 158 µM.
As to `Cc1cccc(SC2C3=C(OC2(C)C)c2ccccc2C(=O)C3=O)c1` (stereo not given), the CC50 at 24 h in series [1] is 25.8 µM. For the same molecule, in series [2], the Ratio LC50/IC50 is 0.31. The IC50 with Trypanosoma cruzi is 83.6 µM.
`Cc1ccc(SC2C3=C(OC2(C)C)c2ccccc2C(=O)C3=O)cc1` (stereo not given): the CC50 at 24 h in series [1] is 20.5 µM. The Ratio LC50/IC50 in series [2] is 0.34. For the same molecule, the IC50 in the series on Trypanosoma cruzi is 59.5 µM.
The like results for `CC1(C)OC2=C(C(=O)C(=O)c3ccccc32)C1Sc1ccccc1` (stereo not given) were, in that order, 17.5 µM, 0.54 and 32.3 µM.
For `CC1(C)OC2=C(C(=O)C(=O)c3ccccc32)C1Sc1c(F)c(F)c(F)c(F)c1F` (stereo not given), in the series with Trypanosoma cruzi, the IC50 was 183 µM.
In the case of `CC1(C)OC2=C(C(=O)C(=O)c3ccccc32)C1Sc1ccc(Cl)cc1` (stereo not given), the CC50 at 24 h in series [1] is 38.9 µM. The Ratio LC50/IC50 in series [2] was determined as 4.23. The IC50 with Trypanosoma cruzi worked out at 9.2 µM.
Regarding `CC1(C)OC2=C(C(=O)C(=O)c3ccccc32)C1Sc1ccc(F)cc1` (stereo not given), in the series with Trypanosoma cruzi, the IC50 is 165 µM.

The values above are taken from ChEMBL document CHEMBL3593167, “Synthesis and anti-Trypanosoma cruzi activity of new 3-phenylthio-nor-β-lapachone derivatives” (Bioorg Med Chem, 2015).
